Literature values, collected in paper PMC12382614, “(Oxidopyridyl)Porphyrins of Different Lipophilicity: Photophysical Properties, ROS Production and Phototoxicity on Melanoma Cells Under CoCl2-Induced Hypoxia” (Antioxidants, 2025).

How the values were obtained:
[1] = design: method as in PMID 3222336; settings: reference compound; cited from earlier work
[2] = cited from earlier work

In the case of `C1=Cc2nc1c(-c1ccccc1)c1nc(c(-c3ccccc3)c3ccc([nH]3)c(-c3ccccc3)c3ccc([nH]3)c2-c2ccccc2)C=C1` [TPP, tetraphenylporphyrin, reference compound], the τFL [1] is given as 10.7 ns, the ΦISC ([2]; reference compound (in toluene)) is given as 0.87 and the εT-T ([2]; reference compound) is given as 66 600 M^−1cm^−1. For the same molecule, the τT ([2]; reference compound) was 90 μs.
